Reference: US11497752B2, “Compounds and uses thereof” (Foghorn Therapeutics Inc., priority 2018, dated 2022)

Experiments:
BRM = BRM (Homo sapiens, UniProt P51531); assay: ATPase catalytic activity of BRM (ADP-Glo in vitro biochemical assay)
BRG-1 = BRG-1 (Homo sapiens, UniProt P51532); assay: ATPase catalytic activity of BRG-1 (ADP-Glo in vitro biochemical assay)
Chain of BRG-1 (P51532 whole entry): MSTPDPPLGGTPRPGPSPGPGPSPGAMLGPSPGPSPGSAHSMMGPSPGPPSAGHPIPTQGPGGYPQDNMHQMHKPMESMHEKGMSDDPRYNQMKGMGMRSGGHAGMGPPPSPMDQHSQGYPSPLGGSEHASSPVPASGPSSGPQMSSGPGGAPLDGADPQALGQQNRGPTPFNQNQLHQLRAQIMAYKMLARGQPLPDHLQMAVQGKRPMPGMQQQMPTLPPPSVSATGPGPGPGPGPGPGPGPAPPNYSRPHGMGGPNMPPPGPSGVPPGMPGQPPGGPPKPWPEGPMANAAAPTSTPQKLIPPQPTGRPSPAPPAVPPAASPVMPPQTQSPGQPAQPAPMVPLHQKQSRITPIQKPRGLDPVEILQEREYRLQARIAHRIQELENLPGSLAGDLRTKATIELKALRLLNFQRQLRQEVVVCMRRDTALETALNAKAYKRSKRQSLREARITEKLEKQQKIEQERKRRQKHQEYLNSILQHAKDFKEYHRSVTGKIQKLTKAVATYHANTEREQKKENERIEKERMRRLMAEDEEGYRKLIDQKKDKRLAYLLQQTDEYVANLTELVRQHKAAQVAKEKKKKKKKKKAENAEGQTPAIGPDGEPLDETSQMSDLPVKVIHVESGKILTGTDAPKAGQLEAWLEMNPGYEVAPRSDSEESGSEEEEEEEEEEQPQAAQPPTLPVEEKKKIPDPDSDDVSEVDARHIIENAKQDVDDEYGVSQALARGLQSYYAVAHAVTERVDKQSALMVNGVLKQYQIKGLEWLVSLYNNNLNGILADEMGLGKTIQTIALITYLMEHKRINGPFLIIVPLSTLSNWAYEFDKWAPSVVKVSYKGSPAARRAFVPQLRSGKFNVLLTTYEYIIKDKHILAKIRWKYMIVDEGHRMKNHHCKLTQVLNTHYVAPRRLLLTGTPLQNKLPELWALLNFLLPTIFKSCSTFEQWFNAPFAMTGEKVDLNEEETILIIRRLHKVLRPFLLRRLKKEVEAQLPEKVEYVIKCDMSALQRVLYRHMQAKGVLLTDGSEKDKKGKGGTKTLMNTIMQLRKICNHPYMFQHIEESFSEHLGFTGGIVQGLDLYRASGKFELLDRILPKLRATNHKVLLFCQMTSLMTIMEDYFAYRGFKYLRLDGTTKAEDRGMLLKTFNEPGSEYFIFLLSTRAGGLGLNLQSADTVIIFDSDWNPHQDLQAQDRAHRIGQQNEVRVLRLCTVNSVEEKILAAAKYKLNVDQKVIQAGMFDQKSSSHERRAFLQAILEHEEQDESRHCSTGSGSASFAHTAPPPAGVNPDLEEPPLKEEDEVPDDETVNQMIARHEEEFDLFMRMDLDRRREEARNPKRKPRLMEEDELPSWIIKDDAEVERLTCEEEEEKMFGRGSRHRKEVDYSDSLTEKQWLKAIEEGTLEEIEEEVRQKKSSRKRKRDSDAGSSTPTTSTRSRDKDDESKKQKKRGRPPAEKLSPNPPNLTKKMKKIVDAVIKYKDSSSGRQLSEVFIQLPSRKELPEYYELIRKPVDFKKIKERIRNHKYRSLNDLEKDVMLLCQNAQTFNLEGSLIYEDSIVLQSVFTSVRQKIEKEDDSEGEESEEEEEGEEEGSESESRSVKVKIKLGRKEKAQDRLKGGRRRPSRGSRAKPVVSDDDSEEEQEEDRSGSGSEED

Chain of BRM (P51531 whole entry): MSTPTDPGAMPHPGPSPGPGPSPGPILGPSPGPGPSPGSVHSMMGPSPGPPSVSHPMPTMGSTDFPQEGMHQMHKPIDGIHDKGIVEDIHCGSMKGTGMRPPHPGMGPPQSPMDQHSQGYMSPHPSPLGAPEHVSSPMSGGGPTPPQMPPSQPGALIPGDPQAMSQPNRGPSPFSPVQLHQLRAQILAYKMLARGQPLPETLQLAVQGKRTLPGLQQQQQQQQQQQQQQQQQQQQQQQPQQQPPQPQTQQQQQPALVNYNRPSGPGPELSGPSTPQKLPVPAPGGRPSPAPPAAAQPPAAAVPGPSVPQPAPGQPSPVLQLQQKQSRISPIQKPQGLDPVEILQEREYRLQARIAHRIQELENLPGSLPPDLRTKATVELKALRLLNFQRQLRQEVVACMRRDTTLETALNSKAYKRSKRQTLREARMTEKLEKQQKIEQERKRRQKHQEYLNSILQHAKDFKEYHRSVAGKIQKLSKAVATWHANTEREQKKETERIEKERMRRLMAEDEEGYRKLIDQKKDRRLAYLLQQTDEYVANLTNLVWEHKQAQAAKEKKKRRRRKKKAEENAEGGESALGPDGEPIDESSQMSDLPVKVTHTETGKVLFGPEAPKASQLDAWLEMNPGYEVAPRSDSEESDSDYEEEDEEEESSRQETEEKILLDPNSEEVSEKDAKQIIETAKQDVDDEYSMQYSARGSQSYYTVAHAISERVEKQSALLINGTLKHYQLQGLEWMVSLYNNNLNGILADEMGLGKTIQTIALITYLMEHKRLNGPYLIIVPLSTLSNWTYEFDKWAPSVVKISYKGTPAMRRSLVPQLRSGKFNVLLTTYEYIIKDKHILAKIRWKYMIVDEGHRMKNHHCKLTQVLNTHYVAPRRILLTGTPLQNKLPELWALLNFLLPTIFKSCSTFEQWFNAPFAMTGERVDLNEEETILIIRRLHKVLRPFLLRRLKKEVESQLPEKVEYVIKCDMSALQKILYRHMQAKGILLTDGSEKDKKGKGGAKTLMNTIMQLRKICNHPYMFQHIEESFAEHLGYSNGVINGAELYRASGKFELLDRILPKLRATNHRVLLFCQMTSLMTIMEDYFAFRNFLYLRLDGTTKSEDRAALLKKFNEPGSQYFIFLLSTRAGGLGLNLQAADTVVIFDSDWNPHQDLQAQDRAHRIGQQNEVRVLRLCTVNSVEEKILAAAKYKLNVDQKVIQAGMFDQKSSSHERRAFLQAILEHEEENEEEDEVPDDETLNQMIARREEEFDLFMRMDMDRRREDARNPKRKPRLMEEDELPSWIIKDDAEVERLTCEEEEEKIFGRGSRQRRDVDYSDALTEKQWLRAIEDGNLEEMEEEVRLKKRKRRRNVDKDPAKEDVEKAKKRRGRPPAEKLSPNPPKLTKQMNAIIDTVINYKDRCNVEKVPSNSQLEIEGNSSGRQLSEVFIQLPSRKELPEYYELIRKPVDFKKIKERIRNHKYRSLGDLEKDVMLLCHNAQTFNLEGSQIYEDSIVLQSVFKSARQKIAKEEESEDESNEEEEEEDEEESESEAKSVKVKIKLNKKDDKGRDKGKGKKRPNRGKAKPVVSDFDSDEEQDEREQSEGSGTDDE

Compound | IC50 (BRM) | BRM Max % Inhibition (BRM; Table 6) | IC50 (BRG-1) | BRG1 Max % Inhibition (BRG-1; Table 6) | BRM Max % Inhibition (BRM; Table 5) | BRG1 Max % Inhibition (BRG-1; Table 5)
CN(C)S(=O)(=O)c1cccc(C(=O)NCC(=O)Nc2nc(-c3cccc(Br)c3)cs2)c1 [Compound 7] | 1 to 10 µM |  | 1 to 10 µM |  | >90% | >60%
O=C(CNC(=O)c1ccc(N2CC(O)C2)cc1)Nc1nc(-c2cccc(-c3ccncc3)c2)cs1 [Compound 103, 4-(3-hydroxyazetidin-1-yl)-N-(2-oxo-2-((4-(3-(pyridin-4-yl)\phenyl)thiazol-2-yl)amino)ethyl)benzamide] | 0.1 to 1 µM | >70% | 1 to 10 µM | >80% |  | 
CC(C)c1csc(NC(=O)CNC(=O)c2cccc(S(=O)(=O)N(C)C)c2)n1 [Compound 35, 3-(dimethylsulfamoyl)-N-[2-[(4-isopropylthiazol-2-yl)amino]-2-oxoethyl]benzamide] | > 10 µM |  | > 10 µM |  | >95% | >90%
CSCC[C@H](NC(=O)c1ccc(N)cc1)C(=O)Nc1nc(-c2cccc(-c3cccc(CN)c3)c2)cs1 [Compound 237, 4-amino-N-[(1S)-1-[[4-[3-[3-(aminomethyl)phenyl]phenyl]thiazol-2-yl]carbamoyl]-3-methylsulfanyl-propyl]benzamide] | 0.1 to 1 µM | >90% | 0.1 to 1 µM | >90% |  | 
CSCC[C@H](NC(=O)c1cccc(S(=O)(=O)N(C)C)c1)C(=O)Nc1nc(-c2ccccc2)cs1 [Compound 24, (S)-3-(N,N-dimethylsulfamoyl)-N-(4-(methylthio)-1-oxo-1-((4-phenylthiazol-2-yl)amino)butan-2-yl)benzamide] | 1 to 10 µM |  |  |  | >70% | >99%
COC(C)(C)Cn1ccc(-c2cccc(-c3csc(NC(=O)CNC(=O)c4ccc(N)cc4)n3)c2)n1 [Compound 232, 4-amino-N-[2-[[4-[3-[1-(2-methoxy-2-methyl-propyl)pyrazol-3-yl]phenyl]thiazol-2-yl]amino]-2-oxo-ethyl]benzamide] | 0.1 to 1 µM | >80% | 0.1 to 1 µM | >80% |  | 
CNC(=O)c1ccc(C(=O)N[C@@H](CCSC)C(=O)Nc2nc(-c3ccccc3)cs2)cc1 [Compound 72, N4-methyl-N1-[(1S)-3-methylsulfanyl-1-[(4-phenylthiazol-2-yl)carbamoyl]propyl]terephthalamide] | > 10 µM |  | > 10 µM |  | >60% | >50%
Cc1ccc(-c2csc(NC(=O)CNC(=O)c3cccc(S(=O)(=O)N(C)C)c3)n2)cc1 [Compound 31, 3-(dimethylsulfamoyl)-N-[2-oxo-2-[[4-(p-tolyl)thiazol-2-yl]amino]ethyl]benzamide] | 1 to 10 µM |  | 1 to 10 µM |  | >30% | <30%
CSCC[C@H](NC(=O)c1cccc(CO)c1)C(=O)Nc1nc(-c2ccccc2)cs1 [Compound 84, 3-(hydroxymethyl)-N-[(1S)-3-methylsulfanyl-1-[(4-phenylthiazol-2-yl)carbamoyl]propyl]benzamide] | > 10 µM |  | > 10 µM |  | >80% | >80%
Cc1cnccc1-c1cccc(-c2csc(NC(=O)CNC(=O)c3ccc(N)cc3)n2)c1 [Compound 194, 4-amino-N-[2-[[4-[3-(3-methyl-4-pyridyl)phenyl]thiazol-2-yl]amino]-2-oxo-ethyl]benzamide] | 0.1 to 1 µM | >90% | 0.1 to 1 µM | >80% |  | 
COc1ccc(-c2cccc(-c3csc(NC(=O)CNC(=O)c4ccc(N)cc4)n3)c2)cn1 [Compound 127, 4-amino-N-(2-((4-(3-(6-methoxypyridin-3-yl)phenyl)thiazol-2-yl)amino)-2-oxoethyl)benzamide] | 0.1 to 1 µM | >90% | 0.1 to 1 µM | >80% |  | 
Cc1nnc(C(=O)NC(C)(C)c2cc(-c3cccc(-c4csc(NC(=O)CNC(=O)c5ccc(N)cc5)n4)c3)ccn2)o1 [Compound 215, N-[1-[4-[3-[2-[[2-[(4-aminobenzoyl)amino]acetyl]amino]thiazol-4-yl]phenyl]-2-pyridyl]-1-methyl-ethyl]-5-methyl-1,3,4-oxadiazole-2-carboxamide] | 0.1 to 1 µM | >90% | 0.1 to 1 µM | >90% |  | 
Nc1ccc(C(=O)NCC(=O)Nc2nc(-c3cccc(N4CCOCC4)c3)cs2)cc1 [Compound 179, 4-amino-N-(2-((4-(3-morpholinophenyl)thiazol-2-yl)amino)-2-oxoethyl)benzamide] | 0.1 to 1 µM | >90% | 0.1 to 1 µM | >95% |  | 
Nc1ccc(C(=O)NCC(=O)Nc2nc(-c3cccc(C4CCCCO4)c3)cs2)cc1 (centres unmarked) [Compound 239, 4-amino-N-[2-oxo-2-[[4-(3-tetrahydropyran-2-ylphenyl)thiazol-2-yl]amino]ethyl]benzamide] | 0.1 to 1 µM | >90% | 0.1 to 1 µM | >80% |  | 
O=C(CNC(=O)c1cccc(S(=O)(=O)C2CC2)c1)Nc1nc(-c2ccccc2)cs1 [Compound 39, 3-cyclopropylsulfonyl-N-[2-oxo-2-[(4-phenylthiazol-2-yl)amino]ethyl]benzamide] | > 10 µM |  | > 10 µM |  | >30% | <30%
CC(=O)NCc1cccc(-c2cccc(-c3csc(NC(=O)CNC(=O)c4ccc(N)cc4)n3)c2)c1 [Compound 124, N-(2-((4-(3′-(acetamidomethyl)-[1,1′-biphenyl]-3-yl)thiazol-2-yl)amino)-2-oxoethyl)-4-aminobenzamide] | 0.1 to 1 µM | >95% | 0.1 to 1 µM | >95% |  | 
O=C(CNC(=O)c1ccc2[nH]ncc2c1)Nc1nc(-c2cccc(-c3ccncc3)c2)cs1 [Compound 96, N-(2-oxo-2-((4-(3-(pyridin-4-yl)phenyl)thiazol-2-yl)amino)ethyl)-1H-indazole-5-carboxamide] | 0.1 to 1 µM | >70% | 1 to 10 µM | >70% |  | 
Nc1ccc(C(=O)NCC(=O)Nc2nc(-c3ccc4c(c3)CCO4)cs2)cc1 [Compound 111, 4-amino-N-(2-((4-(2,3-dihydrobenzofuran-5-yl)thiazol-2-yl)amino)-2-oxoethyl)benzamide] | 0.1 to 1 µM | >90% | 0.1 to 1 µM | >90% |  | 

The remaining lines, values ahead:

IC50 (BRM) | BRM Max % Inhibition (BRM; Table 6) | IC50 (BRG-1) | BRG1 Max % Inhibition (BRG-1; Table 6) | BRM Max % Inhibition (BRM; Table 5) | BRG1 Max % Inhibition (BRG-1; Table 5) | Compound
< 0.1 µM | >95% | < 0.1 µM | >95% |  |  | NCc1cccc(-c2cccc(-c3csc(NC(=O)CNC(=O)c4ccc(N)cc4)n3)c2)c1 [Compound 135, 4-amino-N-(2-((4-(3′-(aminomethyl)-[1,1′-biphenyl]-3-yl)thiazol-2-yl)amino)-2-oxoethyl)benzamide]
0.1 to 1 µM | >95% | 0.1 to 1 µM | >95% |  |  | CN(C)C(=O)CN(C)c1cc(-c2cccc(-c3csc(NC(=O)CNC(=O)c4ccc(N)cc4)n3)c2)ccn1 [Compound 206, 4-amino-N-[2-[[4-[3-[2-[[2-(dimethylamino)-2-oxo-ethyl]-methyl-amino]-4-pyridyl]phenyl]thiazol-2-yl]amino]-2-oxo-ethyl]benzamide]
< 0.1 µM | >95% | < 0.1 µM | >95% |  |  | Cc1cc(-c2cccc(-c3csc(NC(=O)CNC(=O)c4ccc(N)cc4)n3)c2)ccn1 [Compound 195, 4-amino-N-[2-[[4-[3-(2-methyl-4-pyridyl)phenyl]thiazol-2-yl]amino]-2-oxo-ethyl]benzamide]
< 0.1 µM | >95% | < 0.1 µM | >95% |  |  | C[C@H](NC(=O)c1ccc(N)cc1)C(=O)Nc1nc(-c2cccc(-c3ccncc3)c2)cs1 [Compound 125, (S)-4-amino-N-(1-oxo-1-((4-(3-(pyridin-4-yl)phenyl)thiazol-2-yl)amino)propan-2-yl)benzamide]
< 0.1 µM | >95% | 0.1 to 1 µM | >95% |  |  | NCCOc1cc(-c2cccc(-c3csc(NC(=O)CNC(=O)c4ccc(N)cc4)n3)c2)ccn1 [Compound 163, 4-amino-N-(2-((4-(3-(2-(2-aminoethoxy)pyridin-4-yl)phenyl)thiazol-2-yl)amino)-2-oxoethyl)benzamide]
< 0.1 µM | >95% | < 0.1 µM | >95% |  |  | CNC(=O)C(C)(C)c1cc(-c2cccc(-c3csc(NC(=O)CNC(=O)c4ccc(N)cc4)n3)c2)ccn1 [Compound 226, 4-amino-N-[2-[[4-[3-[2-[1,1-dimethyl-2-(methylamino)-2-oxo-ethyl]-4-pyridyl]phenyl]thiazol-2-yl]amino]-2-oxo-ethyl]benzamide]
< 1 µM |  | 1 to 10 µM |  | >95% | >95% | CSCC[C@H](NC(=O)c1ccc(C)c(S(C)(=O)=O)c1)C(=O)Nc1nc(-c2ccccc2)cs1 [Compound 2, 4-methyl-N-[(1S)-3-methylsulfanyl-1-[(4-phenylthiazol-2-yl)carbamoyl]propyl]-3-methylsulfonyl-benzamide]
< 0.1 µM | >95% | < 0.1 µM | >90% |  |  | Nc1ccc(C(=O)NCC(=O)Nc2nc(-c3cccc(-c4ccnc(CC(=O)O)c4)c3)cs2)cc1 [Compound 224, [2-[4-[3-[2-[[2-[(4-aminobenzoyl)amino]acetyl]amino]thiazol-4-yl]phenyl]-2-pyridyl]acetyl]oxysodium]
< 0.1 µM | >80% | < 0.1 µM | >70% |  |  | CN(C)c1ccc(C(=O)NCC(=O)Nc2nc(-c3cccc(-c4ccncc4)c3)cs2)cc1 [Compound 132, 4-(dimethylamino)-N-(2-oxo-2-((4-(3-(pyridin-4-yl)phenyl)thiazol-2-yl)amino)ethyl)benzamide]
